Source: patent US10266806B2, “Stem cell-derived hepatocytes in co-culture and uses thereof” (Colorado State University Research Foundation, priority 2014, dated 2019)
“Also recorded” adds a separate entry of the source. Where two headings read alike, the source gives them in different places.

Experiments:
[1] = system: primary hepatocytes (HUM4011)
iHeps in iMPCCs [2] = system: iHeps in iMPCCs
[3] = cited from earlier work
iMPCCs [4] = system: iMPCCs
[5] = negative number: withdrawn from the market; higher positive numbers: greater DILI concern; cited from earlier work
iMPCCs [6] = experiment: Drug toxicity studies: iMPCCs treated for 8 days with multiple doses; settings: increasing doses
[7] = system: primary human hepatocytes in MPCCs; settings: (ref 19), cited from earlier work; for TC50 in MPCCs ATP: concentration at which activity decreases by 50% of DMSO-only controls
iHeps in iMPCCs [8] = experiment: Drug toxicity screening in iMPCCs (albumin, ATP, urea; binary decision and TC50)
CYP3A4 = settings: human
CYP2C9 [9] = settings: rifampin 25 μM or phenobarbital 1 mM, 4 days
CYP2C9 [10] = settings: rifampin 25 μM or phenobarbital 1 mM, 4 days; remark: listed apart in the source
CYP1A2 = CYP1A2 induction in iMPCCs (7-ethoxyresorufin O-dealkylation); type: cell-based, human
[11] = total human plasma concentration

O=C(O)/C=C\C(=O)O [Maleic acid]
toxicity call in another donor of primary hepatocytes [1]: borderline positive | Model predictions iMPCC (binary decision) (iHeps in iMPCCs [2]): − | Cmax [3, 11]: 1 µM

Cc1c(C)c2c(c(C)c1O)CCC(C)(COc1ccc(CC3SC(=O)NC3=O)cc1)O2 (stereo not shown) [Troglitazone]
albumin production in iMPCCs (iMPCCs [4]): declined significantly | urea production in iMPCCs (iMPCCs [4]): declined significantly | DILI Sev (DILI severity scores from the LTKB of the FDA) [5]: −2

COc1ccc2c(c1)[C@]13CCCC[C@@H]1[C@H](C2)N(C)CC3 [Dextromethorphan HBr]
albumin production in iMPCCs (iMPCCs [6]): minimally affected | urea production in iMPCCs (iMPCCs [6]): minimally affected | Cmax ([3]; human, in vivo): 0.028 µM

NNC(=O)c1ccncc1 [Isoniazid]
DILI Sev (DILI severity scores from the LTKB of the FDA) [5]: 8 | toxicity call in iMPCCs / iHeps (iHeps in iMPCCs [2]): toxic | TC50 in MPCCs Urea [7]: 4.5796 mM | Model predictions iCC (binary decision) (iHeps in iCCs): − | toxicity call in iCCs (iHeps in iCCs): non-toxic | TC50 in MPCCs Albumin (iHeps in iMPCCs [8]): 6.6815 mM | Cmax [3, 11]: 76.6 µM

Nc1ccc(S(=O)(=O)c2ccc(N)cc2)cc1 [Dapsone]
toxicity call in another donor of primary hepatocytes [1]: false negative | Model predictions iMPCC (binary decision) (iHeps in iMPCCs [2]): − | toxicity call in iMPCCs / iHeps (iHeps in iMPCCs [2]): false negative result | Cmax [3, 11]: 6.01 µM

CC(C(=O)O)c1ccc(-c2ccccc2)c(F)c1 (stereo not shown) [Flurbiprofen]
DILI Sev (DILI severity scores from the LTKB of the FDA) [5]: 3 | comparison of urea TC50 values, iHeps versus primary hepatocytes (iHeps in iMPCCs [2]; human, 6 days): higher TC50 in iHeps | TC50 in MPCCs Albumin [7]: 2.4068 mM | TC50 in MPCCs Urea [7]: 2.459 mM | TC50 in MPCCs ATP [7]: 3.3511 mM | TC50 in MPCCs Albumin (iHeps in iMPCCs [8]): 5.6834 mM | Cmax [3, 11]: 57.4 µM

O=P1(N(CCCl)CCCl)NCCCO1 (stereo not shown) [Cyclophosphamide]
TC50 in MPCCs Albumin [7]: 1.4494 mM | TC50 in MPCCs Urea [7]: 1.746 mM | TC50 in MPCCs ATP [7]: 6.165 mM | TC50 in MPCCs Albumin (iHeps in iMPCCs [8]): 18.6707 mM | Cmax [3, 11]: 265 µM

CC(=O)Nc1nnc(S(N)(=O)=O)s1 [Acetazolamide]
toxicity call in another donor of primary hepatocytes [1]: false negative | Model predictions iMPCC (binary decision) (iHeps in iMPCCs [2]): − | Cmax [3, 11]: 135 µM

Cc1ccc(C(=O)c2cc(O)c(O)c([N+](=O)[O-])c2)cc1 [tolcapone]
albumin production in iMPCCs (iMPCCs [4]): declined significantly | urea production in iMPCCs (iMPCCs [4]): declined significantly | albumin secretions in iMPCCs, toxicity over time and dose (iHeps in iMPCCs [2]): time- and dose-dependent toxicities

CCC1(c2ccccc2)C(=O)NC(=O)NC1=O [phenobarbital]
fold induction of CYP3A4 transcripts in iMPCCs relative to PHH-MPCCs (CYP3A4): 60-130% | induction in CYP3A4 functions in iMPCCs relative to PHH-MPCCs (CYP3A4): 44-79% | CYP2C9 induction response in iCCs (CYP2C9 [9]): induced functional activity; also recorded: severely blunted | CYP2C9 functional activity induction in iMPCCs (CYP2C9 [10]): significant increases; also recorded: induced | CYP2C9 gene expression induction in iMPCCs (CYP2C9 [10]): inducible; also recorded: induced

CC(=O)Oc1ccccc1C(=O)O [Aspirin]
albumin production in iMPCCs (iMPCCs [4]): minimally affected | urea production in iMPCCs (iMPCCs [4]): minimally affected | Model predictions iMPCC (binary decision) (iHeps in iMPCCs [2]): − | Model predictions iCC (binary decision) (iHeps in iCCs): − | Cmax [3, 11]: 5.53 µM

CC(=O)Nc1ccc(O)cc1 [Acetaminophen]
albumin production in iMPCCs (iMPCCs [4]): declined significantly | urea production in iMPCCs (iMPCCs [4]): declined significantly

COc1ccc2[nH]c([S+]([O-])Cc3ncc(C)c(OC)c3C)nc2c1 (stereo not shown) [omeprazole]
induction of iMPCC CYP1A2 activity (CYP1A2; 4 days): dose-dependent manner | CYP1A2 fold induction in iMPCCs as % of values in PHH-MPCCs (CYP1A2; same dose and duration): ~70%
